According to ChEMBL document CHEMBL3885881, “DrugMatrix”:

Species: Rattus norvegicus
Assay: DrugMatrix - Regimen: Daily Repeat
Format: toxicity, organism-based, Sprague-Dawley
Set-up: regimen Daily Repeat, gender Male, age 6-8 weeks
Details: in vivo, po, route oral GAVAGE, vehicle .5 % CMC; for BASOPHIL / EOSINOPHIL / ERYTHROCYTE COUNT / HEMATOCRIT / HEMOGLOBIN / LEUKOCYTE COUNT / LYMPHOCYTE / MEAN CORPUSCULAR HEMOGLOBIN / MEAN CORPUSCULAR HEMOGLOBIN CONCENTRATION / MEAN CORPUSCULAR VOLUME / MONOCYTE / NEUTROPHIL / PLATELET COUNT: tissue Blood; for ALANINE AMINOTRANSFERASE / ALBUMIN / ALKALINE PHOSPHATASE / ASPARTATE AMINOTRANSFERASE / BLOOD UREA NITROGEN / CHLORIDE / CHOLESTEROL / CREATINE PHOSPHOKINASE / CREATININE / GLUCOSE / PHOSPHORUS / POTASSIUM / SODIUM / TOTAL PROTEIN: tissue Plasma
[1] = 0 mg/kg, 72 h, dose level Control, time 3 day
[2] = 0 mg/kg, 120 h, dose level Control, time 5 day
[3] = 1 mg/kg, 72 h, dose level Low, time 3 day
[4] = 1 mg/kg, 120 h, dose level Low, time 5 day
[5] = 14 mg/kg, 72 h, dose level High, time 3 day
[6] = 14 mg/kg, 120 h, dose level High, time 5 day

SMILES: CN1C(C(=O)Nc2ccccn2)=C(O)c2ccccc2S1(=O)=O [PIROXICAM]
- BASOPHIL [1]: 0%
- EOSINOPHIL [1]: 0.33%
- ERYTHROCYTE COUNT [1]: 6.03 x10E6/uL
- HEMATOCRIT [1]: 38.8%
- HEMOGLOBIN [1]: 14.26 G/DL
- LEUKOCYTE COUNT [1]: 10.64 x10E3/uL
- LYMPHOCYTE [1]: 83.33%
- MEAN CORPUSCULAR HEMOGLOBIN [1]: 23.64 pg
- MEAN CORPUSCULAR HEMOGLOBIN CONCENTRATION [1]: 36.74 G/DL
- MEAN CORPUSCULAR VOLUME [1]: 64.32 fL
- MONOCYTE [1]: 3.33%
- NEUTROPHIL [1]: 13%
- PLATELET COUNT [1]: 1264.4 x10E3/uL
- ALANINE AMINOTRANSFERASE [1]: 38.83 u/L
- ALBUMIN [1]: 3.55 G/DL
- ALKALINE PHOSPHATASE [1]: 368.33 u/L
- ASPARTATE AMINOTRANSFERASE [1]: 66.17 u/L
- BLOOD UREA NITROGEN [1]: 15.67 mg/dL
- CHLORIDE [1]: 104.33 MEQ/L
- CHOLESTEROL [1]: 76.5 mg/dL
- CREATINE PHOSPHOKINASE [1]: 166.83 u/L
- CREATININE [1]: 0.52 mg/dL
- GLUCOSE [1]: 173.17 mg/dL
- PHOSPHORUS [1]: 11.68 mg/dL
- POTASSIUM [1]: 6.43 MEQ/L
- SODIUM [1]: 149.5 MEQ/L
- TOTAL PROTEIN [1]: 5.93 G/DL
- BASOPHIL [2]: 0%
- EOSINOPHIL [2]: 0%
- ERYTHROCYTE COUNT [2]: 5.88 x10E6/uL
- HEMATOCRIT [2]: 37.87%
- HEMOGLOBIN [2]: 14.48 G/DL
- LEUKOCYTE COUNT [2]: 12.43 x10E3/uL
- LYMPHOCYTE [2]: 84.17%
- MEAN CORPUSCULAR HEMOGLOBIN [2]: 24.65 pg
- MEAN CORPUSCULAR HEMOGLOBIN CONCENTRATION [2]: 38.25 G/DL
- MEAN CORPUSCULAR VOLUME [2]: 64.47 fL
- MONOCYTE [2]: 4.33%
- NEUTROPHIL [2]: 11.5%
- PLATELET COUNT [2]: 1182.33 x10E3/uL
- ALANINE AMINOTRANSFERASE [2]: 38.67 u/L
- ALBUMIN [2]: 3.55 G/DL
- ALKALINE PHOSPHATASE [2]: 342.5 u/L
- ASPARTATE AMINOTRANSFERASE [2]: 63.33 u/L
- BLOOD UREA NITROGEN [2]: 15.5 mg/dL
- CHLORIDE [2]: 104 MEQ/L
- CHOLESTEROL [2]: 75.5 mg/dL
- CREATINE PHOSPHOKINASE [2]: 142.5 u/L
- CREATININE [2]: 0.62 mg/dL
- GLUCOSE [2]: 165.17 mg/dL
- PHOSPHORUS [2]: 10.87 mg/dL
- POTASSIUM [2]: 6.85 MEQ/L
- SODIUM [2]: 150.17 MEQ/L
- TOTAL PROTEIN [2]: 5.93 G/DL
- BASOPHIL [3]: 0%
- EOSINOPHIL [3]: 0%
- ERYTHROCYTE COUNT [3]: 6.55 x10E6/uL
- HEMATOCRIT [3]: 42.8%
- HEMOGLOBIN [3]: 15.95 G/DL
- LEUKOCYTE COUNT [3]: 11.1 x10E3/uL
- LYMPHOCYTE [3]: 85.5%
- MEAN CORPUSCULAR HEMOGLOBIN [3]: 24.3 pg
- MEAN CORPUSCULAR HEMOGLOBIN CONCENTRATION [3]: 37.3 G/DL
- MEAN CORPUSCULAR VOLUME [3]: 65.25 fL
- MONOCYTE [3]: 3.5%
- NEUTROPHIL [3]: 11%
- PLATELET COUNT [3]: 1530 x10E3/uL
- ALANINE AMINOTRANSFERASE [3]: 31.5 u/L
- ALBUMIN [3]: 3.75 G/DL
- ALKALINE PHOSPHATASE [3]: 379 u/L
- ASPARTATE AMINOTRANSFERASE [3]: 59 u/L
- BLOOD UREA NITROGEN [3]: 16.5 mg/dL
- CHLORIDE [3]: 102.5 MEQ/L
- CHOLESTEROL [3]: 77.5 mg/dL
- CREATINE PHOSPHOKINASE [3]: 142.5 u/L
- CREATININE [3]: 0.4 mg/dL
- GLUCOSE [3]: 174 mg/dL
- PHOSPHORUS [3]: 13.7 mg/dL
- POTASSIUM [3]: 6.85 MEQ/L
- SODIUM [3]: 152 MEQ/L
- TOTAL PROTEIN [3]: 6.2 G/DL
- BASOPHIL [4]: 0%
- EOSINOPHIL [4]: 0.33%
- ERYTHROCYTE COUNT [4]: 6.32 x10E6/uL
- HEMATOCRIT [4]: 40.2%
- HEMOGLOBIN [4]: 15.2 G/DL
- LEUKOCYTE COUNT [4]: 12.73 x10E3/uL
- LYMPHOCYTE [4]: 86.33%
- MEAN CORPUSCULAR HEMOGLOBIN [4]: 24.07 pg
- MEAN CORPUSCULAR HEMOGLOBIN CONCENTRATION [4]: 37.83 G/DL
- MEAN CORPUSCULAR VOLUME [4]: 63.7 fL
- MONOCYTE [4]: 2.33%
- NEUTROPHIL [4]: 11%
- PLATELET COUNT [4]: 1319.67 x10E3/uL
- ALANINE AMINOTRANSFERASE [4]: 36.67 u/L
- ALBUMIN [4]: 3.43 G/DL
- ALKALINE PHOSPHATASE [4]: 437.33 u/L
- ASPARTATE AMINOTRANSFERASE [4]: 64 u/L
- BLOOD UREA NITROGEN [4]: 13.67 mg/dL
- CHLORIDE [4]: 103 MEQ/L
- CHOLESTEROL [4]: 65 mg/dL
- CREATINE PHOSPHOKINASE [4]: 156.67 u/L
- CREATININE [4]: 0.53 mg/dL
- GLUCOSE [4]: 162.67 mg/dL
- PHOSPHORUS [4]: 11.97 mg/dL
- POTASSIUM [4]: 7.07 MEQ/L
- SODIUM [4]: 148.33 MEQ/L
- TOTAL PROTEIN [4]: 5.63 G/DL
- BASOPHIL [5]: 0%
- EOSINOPHIL [5]: 0.67%
- ERYTHROCYTE COUNT [5]: 6.72 x10E6/uL
- HEMATOCRIT [5]: 42.6%
- HEMOGLOBIN [5]: 15.63 G/DL
- LEUKOCYTE COUNT [5]: 11.5 x10E3/uL
- LYMPHOCYTE [5]: 77.67%
- MEAN CORPUSCULAR HEMOGLOBIN [5]: 23.3 pg
- MEAN CORPUSCULAR HEMOGLOBIN CONCENTRATION [5]: 36.73 G/DL
- MEAN CORPUSCULAR VOLUME [5]: 63.4 fL
- MONOCYTE [5]: 1.67%
- NEUTROPHIL [5]: 20%
- PLATELET COUNT [5]: 1318.33 x10E3/uL
- ALANINE AMINOTRANSFERASE [5]: 31.33 u/L
- ALBUMIN [5]: 3.67 G/DL
- ALKALINE PHOSPHATASE [5]: 301.33 u/L
- ASPARTATE AMINOTRANSFERASE [5]: 56.33 u/L
- BLOOD UREA NITROGEN [5]: 18.33 mg/dL
- CHLORIDE [5]: 104.67 MEQ/L
- CHOLESTEROL [5]: 84.67 mg/dL
- CREATINE PHOSPHOKINASE [5]: 181.33 u/L
- CREATININE [5]: 0.47 mg/dL
- GLUCOSE [5]: 193.67 mg/dL
- PHOSPHORUS [5]: 14.03 mg/dL
- POTASSIUM [5]: 6.9 MEQ/L
- SODIUM [5]: 150.67 MEQ/L
- TOTAL PROTEIN [5]: 6.03 G/DL
- BASOPHIL [6]: 0%
- EOSINOPHIL [6]: 0%
- ERYTHROCYTE COUNT [6]: 6.6 x10E6/uL
- HEMATOCRIT [6]: 41.4%
- HEMOGLOBIN [6]: 15.03 G/DL
- LEUKOCYTE COUNT [6]: 16.7 x10E3/uL
- LYMPHOCYTE [6]: 84.33%
- MEAN CORPUSCULAR HEMOGLOBIN [6]: 22.83 pg
- MEAN CORPUSCULAR HEMOGLOBIN CONCENTRATION [6]: 36.4 G/DL
- MEAN CORPUSCULAR VOLUME [6]: 62.8 fL
- MONOCYTE [6]: 0.67%
- NEUTROPHIL [6]: 15%
- PLATELET COUNT [6]: 1151 x10E3/uL
- ALANINE AMINOTRANSFERASE [6]: 37.33 u/L
- ALBUMIN [6]: 3.4 G/DL
- ALKALINE PHOSPHATASE [6]: 386 u/L
- ASPARTATE AMINOTRANSFERASE [6]: 55.33 u/L
- BLOOD UREA NITROGEN [6]: 15.33 mg/dL
- CHLORIDE [6]: 101.67 MEQ/L
- CHOLESTEROL [6]: 67 mg/dL
- CREATINE PHOSPHOKINASE [6]: 159.67 u/L
- CREATININE [6]: 0.5 mg/dL
- GLUCOSE [6]: 174.67 mg/dL
- PHOSPHORUS [6]: 14.17 mg/dL
- POTASSIUM [6]: 7.1 MEQ/L
- SODIUM [6]: 149 MEQ/L
- TOTAL PROTEIN [6]: 5.7 G/DL
